Calls of active or inactive are those of the source. The calls are words filed in the database; no cut-off is given here.

Here are results for two molecules from ChEMBL document CHEMBL5260845, “Flavone-based arylamides as potential anticancers: Design, synthesis and in vitro cell-based/cell-free evaluations” (2020).

For one assay, the system named is SK-MEL-28. Description: Antiproliferative activity against human SK-MEL-28 cells assessed as cell growth inhibition at 10 uM by SRB assay relative to control. The class given is functional. On the technique in general: Sulforhodamine B stains cellular protein and so reports cell mass.
Another assay concerns MOLT-4. Description: Antiproliferative activity against human MOLT-4 cells assessed as cell growth inhibition at 10 uM by SRB assay. It counts as functional, cell-based.
A further assay concerns HOP-62. Nature of the assay: Antiproliferative activity against human HOP-62 cells assessed as cell growth inhibition at 10 uM by SRB assay relative to control. The class given is functional.
In a further assay the test system is HOP-92. Description: Antiproliferative activity against human HOP-92 cells assessed as cell growth inhibition at 10 uM by SRB assay relative to control. The class given is functional.
For a further assay, the system named is HCT-116. Description: Antiproliferative activity against human HCT-116 cells assessed as cell growth inhibition at 10 uM by SRB assay. It counts as functional, cell-based.
Assay [1] has as its system HT-29. Description: Antiproliferative activity against human HT-29 cells assessed as cell growth inhibition at 10 uM by SRB assay. The class given is functional, cell-based.
A further assay deals with KM12. Description: Antiproliferative activity against human KM12 cells assessed as cell growth inhibition at 10 uM by SRB assay. The class given is functional, cell-based.
The subject of the next assay is SF-268. Description: Antiproliferative activity against human SF-268 cells assessed as cell growth inhibition at 10 uM by SRB assay relative to control. The class given is functional.
The subject of the next assay is UACC-257. Description: Antiproliferative activity against human UACC-257 cells assessed as cell growth inhibition at 10 uM by SRB assay relative to control. It counts as functional.
The next assay deals with M14. Description: Antiproliferative activity against human M14 cells assessed as cell growth inhibition at 10 uM by SRB assay relative to control. The class given is functional.
The subject of another assay is LOX IMVI. Nature of the assay: Antiproliferative activity against human LOX IMVI cells assessed as cell growth inhibition at 10 uM by SRB assay relative to control. The class given is functional.
The next assay concerns SN12C. Nature of the assay: Antiproliferative activity against human SN12C cells assessed as inhibition of cell growth at 10 uM by SRB assay relative to control. The class given is functional.
The next assay deals with DU-145. Description: Antiproliferative activity against human DU-145 cells assessed as inhibition of cell growth at 10 uM by SRB assay. The class given is functional, cell-based.
In the next assay the test system is T47D. Description: Antiproliferative activity against estrogen receptor positive human T47D cells assessed as inhibition of cell growth at 10 uM by SRB assay. It counts as functional, cell-based.
Another assay deals with MCF7. Nature of the assay: Antiproliferative activity against estrogen receptor positive human MCF7 cells assessed as inhibition of cell growth at 10 uM by SRB assay. It counts as functional, cell-based.
Assay [2] has as its target Receptor tyrosine-protein kinase erbB-4 (Homo sapiens) (UniProt Q15303). Description: Inhibition of ERBB4 (unknown origin) at 10 uM by biochemical hotspot kinase assay relative to control.
Assay [3] has as its target Receptor-type tyrosine-protein kinase FLT3 (Homo sapiens) (UniProt P36888). Nature of the assay: Inhibition of FLT3 (unknown origin) at 10 uM by biochemical hotspot kinase assay relative to control.
Assay [4] addresses Insulin receptor (Homo sapiens) (UniProt P06213). Description: Inhibition of INSR (unknown origin) at 10 uM by biochemical hotspot kinase assay.
Assay [5] addresses Vascular endothelial growth factor receptor 2 (Homo sapiens) (UniProt P35968). Nature of the assay: Inhibition of VEGFR2 (unknown origin) at 10 uM by biochemical hotspot kinase assay.
For assay [6], the target named is High affinity nerve growth factor receptor (Homo sapiens) (UniProt P04629). Description: Inhibition of TrkA (unknown origin) at 10 uM by biochemical hotspot kinase assay.
The target in assay [7] is Ephrin type-B receptor 4 (Homo sapiens) (UniProt P54760). Description: Inhibition of EPHB4 (unknown origin) at 10 uM by biochemical hotspot kinase assay.
Assay [8] addresses Proto-oncogene tyrosine-protein kinase receptor Ret (Homo sapiens) (UniProt P07949). Nature of the assay: Inhibition of RET (unknown origin) at 10 uM by biochemical hotspot kinase assay.
The target in assay [9] is Tyrosine-protein kinase Lck (Homo sapiens) (UniProt P06239). Nature of the assay: Inhibition of LCK (unknown origin) at 10 uM by biochemical hotspot kinase assay relative to control.
The target in assay [10] is Proto-oncogene tyrosine-protein kinase Src (Homo sapiens) (UniProt P12931). Description: Inhibition of c-Src (unknown origin) at 10 uM by biochemical hotspot kinase assay.
Assay [11] addresses Tyrosine-protein kinase JAK3 (Homo sapiens) (UniProt P52333). Description: Inhibition of JAK3 (unknown origin) at 10 uM by biochemical hotspot kinase assay.
In assay [12] the target is Interleukin-1 receptor-associated kinase 4 (Homo sapiens) (UniProt Q9NWZ3). Nature of the assay: Inhibition of IRAK4 (unknown origin) at 10 uM by biochemical hotspot kinase assay.
In assay [13] the target is Serine/threonine-protein kinase B-raf (Homo sapiens) (UniProt P15056). Nature of the assay: Inhibition of B-RAF (unknown origin) at 10 uM by biochemical hotspot kinase assay relative to control.
The target in assay [14] is Mitogen-activated protein kinase kinase kinase 7 (Homo sapiens) (UniProt O43318). Nature of the assay: Inhibition of TAK1 (unknown origin) at 10 uM by biochemical hotspot kinase assay relative to control.
The target of assay [15] is Serine/threonine-protein kinase ICK (Homo sapiens) (UniProt Q9UPZ9). Description: Inhibition of LCK2 (unknown origin) at 10 uM by biochemical hotspot kinase assay.
Assay [16] addresses Homeodomain-interacting protein kinase 1 (Homo sapiens) (UniProt Q86Z02). Nature of the assay: Inhibition of HIPK1 (unknown origin) at 10 uM by biochemical hotspot kinase assay.
Assay [17] concerns the target Serine/threonine-protein kinase 3 (Homo sapiens) (UniProt Q13188). Description: Inhibition of MST2 (unknown origin) at 10 uM by biochemical hotspot kinase assay relative to control.
For assay [18], the target named is Serine/threonine-protein kinase PAK 2 (Homo sapiens) (UniProt Q13177). Description: Inhibition of PAK2 (unknown origin) at 10 uM by biochemical hotspot kinase assay.
Assay [19] addresses Serine/threonine-protein kinase Chk1 (Homo sapiens) (UniProt O14757). Nature of the assay: Inhibition of CHK1 (unknown origin) at 10 uM by biochemical hotspot kinase assay.
Assay [20] deals with Death-associated protein kinase 1 (Homo sapiens) (UniProt P53355). Nature of the assay: Inhibition of DAPK1 (unknown origin) at 10 uM by biochemical hotspot kinase assay.
For assay [21], the target named is Death-associated protein kinase 3 (Homo sapiens) (UniProt O43293). Description: Inhibition of DAPK3 (unknown origin) at 10 uM by biochemical hotspot kinase assay.
The target of assay [22] is Serine/threonine-protein kinase 17A (Homo sapiens) (UniProt Q9UEE5). Description: Inhibition of DRAK1 (unknown origin) at 10 uM by biochemical hotspot kinase assay relative to control.
Assay [23] deals with Phosphorylase b kinase gamma catalytic chain, liver/testis isoform (Homo sapiens) (UniProt P15735). Nature of the assay: Inhibition of PHKG2 (unknown origin) at 10 uM by biochemical hotspot kinase assay relative to control.
Assay [24] has as its system HT-29. Description: Antiproliferative activity against human HT-29 cells assessed as cell growth inhibition by SRB assay. The class given is functional.
The subject of assay [25] is HT-29. Nature of the assay: Induction of cell cycle arrest in human HT-29 cells assessed as reduction in accumulation of cells at S phase at 2.5 to 10 uM incubated for 24 hrs by PI staining based analysis. The class given is functional. Conditions: dose 2.5-10 µM.

Chain of Receptor tyrosine-protein kinase erbB-4 (Homo sapiens) (Q15303 whole entry): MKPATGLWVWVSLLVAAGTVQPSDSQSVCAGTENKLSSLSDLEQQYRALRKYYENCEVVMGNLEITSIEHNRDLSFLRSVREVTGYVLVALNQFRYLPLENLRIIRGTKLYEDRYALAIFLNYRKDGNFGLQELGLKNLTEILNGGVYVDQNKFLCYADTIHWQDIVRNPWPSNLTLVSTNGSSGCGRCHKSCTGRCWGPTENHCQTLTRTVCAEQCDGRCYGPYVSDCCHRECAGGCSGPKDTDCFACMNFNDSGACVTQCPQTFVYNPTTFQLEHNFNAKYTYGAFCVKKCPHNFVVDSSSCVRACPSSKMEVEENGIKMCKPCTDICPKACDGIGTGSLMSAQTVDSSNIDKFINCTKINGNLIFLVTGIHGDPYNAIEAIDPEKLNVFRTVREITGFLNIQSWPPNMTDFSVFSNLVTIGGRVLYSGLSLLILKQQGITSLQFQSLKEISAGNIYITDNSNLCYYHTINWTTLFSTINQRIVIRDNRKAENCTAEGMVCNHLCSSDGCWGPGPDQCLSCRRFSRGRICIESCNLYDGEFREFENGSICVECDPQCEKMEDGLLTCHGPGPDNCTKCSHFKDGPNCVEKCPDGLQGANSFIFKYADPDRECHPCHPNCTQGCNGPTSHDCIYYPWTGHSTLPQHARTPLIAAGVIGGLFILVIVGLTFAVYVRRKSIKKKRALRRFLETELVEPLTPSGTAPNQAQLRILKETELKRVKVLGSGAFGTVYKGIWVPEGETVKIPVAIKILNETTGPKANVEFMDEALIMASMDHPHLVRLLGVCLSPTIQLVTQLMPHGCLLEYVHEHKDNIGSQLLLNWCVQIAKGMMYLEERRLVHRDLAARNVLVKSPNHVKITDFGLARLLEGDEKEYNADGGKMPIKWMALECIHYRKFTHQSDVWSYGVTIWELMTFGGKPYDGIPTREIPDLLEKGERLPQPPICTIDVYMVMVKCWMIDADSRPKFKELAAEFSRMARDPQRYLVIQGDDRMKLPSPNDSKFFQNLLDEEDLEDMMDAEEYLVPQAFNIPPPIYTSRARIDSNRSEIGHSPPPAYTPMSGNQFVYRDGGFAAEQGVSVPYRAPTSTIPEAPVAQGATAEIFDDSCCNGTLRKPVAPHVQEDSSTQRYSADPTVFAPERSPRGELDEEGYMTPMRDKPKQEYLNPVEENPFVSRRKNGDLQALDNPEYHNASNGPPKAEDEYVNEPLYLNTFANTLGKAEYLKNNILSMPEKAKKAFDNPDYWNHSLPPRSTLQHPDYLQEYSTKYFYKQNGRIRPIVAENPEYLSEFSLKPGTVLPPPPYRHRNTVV
Chain of Phosphorylase b kinase gamma catalytic chain, liver/testis isoform (Homo sapiens) (P15735 whole entry, canonical isoform): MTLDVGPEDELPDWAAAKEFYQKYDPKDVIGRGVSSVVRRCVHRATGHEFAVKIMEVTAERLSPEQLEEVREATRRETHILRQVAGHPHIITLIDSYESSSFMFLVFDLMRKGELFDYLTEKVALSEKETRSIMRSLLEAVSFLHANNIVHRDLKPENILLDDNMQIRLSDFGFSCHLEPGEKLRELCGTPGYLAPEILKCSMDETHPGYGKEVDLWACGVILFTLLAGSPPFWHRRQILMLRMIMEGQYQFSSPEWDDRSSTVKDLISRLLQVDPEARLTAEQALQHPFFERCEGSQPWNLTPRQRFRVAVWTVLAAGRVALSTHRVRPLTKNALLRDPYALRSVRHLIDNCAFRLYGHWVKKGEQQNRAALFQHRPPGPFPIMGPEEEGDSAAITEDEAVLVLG
Chain of Serine/threonine-protein kinase 3 (Homo sapiens) (Q13188 whole entry): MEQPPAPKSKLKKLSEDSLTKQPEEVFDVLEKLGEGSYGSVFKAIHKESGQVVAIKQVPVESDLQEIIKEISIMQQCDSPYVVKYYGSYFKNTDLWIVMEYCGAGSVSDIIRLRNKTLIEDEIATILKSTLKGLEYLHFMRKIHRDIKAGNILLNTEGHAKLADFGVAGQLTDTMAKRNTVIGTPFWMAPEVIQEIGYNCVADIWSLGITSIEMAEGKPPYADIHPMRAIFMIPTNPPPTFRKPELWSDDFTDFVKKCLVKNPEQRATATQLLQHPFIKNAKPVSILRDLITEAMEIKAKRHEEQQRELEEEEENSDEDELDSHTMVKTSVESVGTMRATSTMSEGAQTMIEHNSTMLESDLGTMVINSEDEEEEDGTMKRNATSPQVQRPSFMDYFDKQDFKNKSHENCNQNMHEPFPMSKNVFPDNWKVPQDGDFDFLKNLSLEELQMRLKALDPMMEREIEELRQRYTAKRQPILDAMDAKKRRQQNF
Chain of Proto-oncogene tyrosine-protein kinase receptor Ret (Homo sapiens) (P07949 whole entry): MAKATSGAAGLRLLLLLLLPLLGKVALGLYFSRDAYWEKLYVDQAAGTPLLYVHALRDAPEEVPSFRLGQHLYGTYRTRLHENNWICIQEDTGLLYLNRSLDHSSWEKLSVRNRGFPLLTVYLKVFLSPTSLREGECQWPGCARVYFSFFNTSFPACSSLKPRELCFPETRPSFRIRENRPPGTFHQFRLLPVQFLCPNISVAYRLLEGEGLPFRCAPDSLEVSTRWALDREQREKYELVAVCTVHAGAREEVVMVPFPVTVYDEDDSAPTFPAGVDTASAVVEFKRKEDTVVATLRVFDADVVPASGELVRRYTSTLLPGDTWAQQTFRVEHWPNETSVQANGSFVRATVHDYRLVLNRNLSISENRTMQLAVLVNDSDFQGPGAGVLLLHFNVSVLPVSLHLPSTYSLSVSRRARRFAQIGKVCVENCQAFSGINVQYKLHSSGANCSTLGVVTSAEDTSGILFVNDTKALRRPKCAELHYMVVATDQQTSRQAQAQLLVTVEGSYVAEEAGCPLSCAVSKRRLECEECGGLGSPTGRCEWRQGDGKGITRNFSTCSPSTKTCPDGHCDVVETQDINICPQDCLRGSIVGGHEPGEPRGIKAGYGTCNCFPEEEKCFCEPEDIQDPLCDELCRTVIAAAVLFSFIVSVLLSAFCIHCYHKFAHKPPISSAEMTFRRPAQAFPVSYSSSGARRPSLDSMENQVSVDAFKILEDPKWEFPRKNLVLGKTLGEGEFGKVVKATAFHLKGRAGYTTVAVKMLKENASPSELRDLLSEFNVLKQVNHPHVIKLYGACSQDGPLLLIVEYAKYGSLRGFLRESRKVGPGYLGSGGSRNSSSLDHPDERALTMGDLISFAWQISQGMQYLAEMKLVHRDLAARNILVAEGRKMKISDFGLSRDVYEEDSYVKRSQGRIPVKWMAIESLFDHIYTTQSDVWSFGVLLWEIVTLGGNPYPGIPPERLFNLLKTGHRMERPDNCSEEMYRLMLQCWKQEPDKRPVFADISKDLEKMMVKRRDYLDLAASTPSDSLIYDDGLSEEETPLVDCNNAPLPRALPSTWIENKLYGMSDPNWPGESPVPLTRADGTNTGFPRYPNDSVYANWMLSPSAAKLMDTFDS
Chain of Serine/threonine-protein kinase B-raf (Homo sapiens) (P15056 whole entry): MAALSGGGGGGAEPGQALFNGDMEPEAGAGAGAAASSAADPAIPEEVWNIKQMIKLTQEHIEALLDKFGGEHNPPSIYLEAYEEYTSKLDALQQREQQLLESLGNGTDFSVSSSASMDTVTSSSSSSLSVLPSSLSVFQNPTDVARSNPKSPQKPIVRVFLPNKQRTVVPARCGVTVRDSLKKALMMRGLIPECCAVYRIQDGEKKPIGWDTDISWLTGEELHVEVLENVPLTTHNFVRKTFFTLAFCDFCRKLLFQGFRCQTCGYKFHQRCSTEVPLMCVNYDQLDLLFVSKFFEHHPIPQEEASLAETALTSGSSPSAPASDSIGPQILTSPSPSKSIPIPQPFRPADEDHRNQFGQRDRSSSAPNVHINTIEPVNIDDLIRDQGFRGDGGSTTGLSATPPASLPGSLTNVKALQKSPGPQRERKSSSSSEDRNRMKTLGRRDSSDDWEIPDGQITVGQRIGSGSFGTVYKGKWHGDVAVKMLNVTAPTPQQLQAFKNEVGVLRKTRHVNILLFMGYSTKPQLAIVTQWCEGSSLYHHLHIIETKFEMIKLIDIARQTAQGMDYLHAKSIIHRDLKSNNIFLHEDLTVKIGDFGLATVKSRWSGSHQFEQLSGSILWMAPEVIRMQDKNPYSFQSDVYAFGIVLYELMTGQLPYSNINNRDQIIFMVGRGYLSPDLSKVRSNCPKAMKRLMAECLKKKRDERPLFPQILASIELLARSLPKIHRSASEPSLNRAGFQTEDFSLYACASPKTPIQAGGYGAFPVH
Chain of Serine/threonine-protein kinase PAK 2 (Homo sapiens) (Q13177 whole entry): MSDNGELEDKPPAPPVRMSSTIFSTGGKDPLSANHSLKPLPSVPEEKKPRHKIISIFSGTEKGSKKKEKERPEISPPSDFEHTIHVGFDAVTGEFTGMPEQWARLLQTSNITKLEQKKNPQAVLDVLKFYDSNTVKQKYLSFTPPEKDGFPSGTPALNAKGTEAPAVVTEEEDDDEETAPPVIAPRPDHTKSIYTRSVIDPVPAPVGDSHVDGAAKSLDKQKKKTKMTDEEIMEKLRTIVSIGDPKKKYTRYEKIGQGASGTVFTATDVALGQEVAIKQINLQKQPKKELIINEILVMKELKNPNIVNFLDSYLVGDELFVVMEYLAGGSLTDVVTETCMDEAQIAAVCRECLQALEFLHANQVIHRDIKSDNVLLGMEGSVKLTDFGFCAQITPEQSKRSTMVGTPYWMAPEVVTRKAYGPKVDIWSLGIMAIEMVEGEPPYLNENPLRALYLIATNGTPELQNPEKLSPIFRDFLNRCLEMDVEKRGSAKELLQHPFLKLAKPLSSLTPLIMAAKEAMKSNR
Chain of Serine/threonine-protein kinase 17A (Homo sapiens) (Q9UEE5 whole entry, canonical isoform): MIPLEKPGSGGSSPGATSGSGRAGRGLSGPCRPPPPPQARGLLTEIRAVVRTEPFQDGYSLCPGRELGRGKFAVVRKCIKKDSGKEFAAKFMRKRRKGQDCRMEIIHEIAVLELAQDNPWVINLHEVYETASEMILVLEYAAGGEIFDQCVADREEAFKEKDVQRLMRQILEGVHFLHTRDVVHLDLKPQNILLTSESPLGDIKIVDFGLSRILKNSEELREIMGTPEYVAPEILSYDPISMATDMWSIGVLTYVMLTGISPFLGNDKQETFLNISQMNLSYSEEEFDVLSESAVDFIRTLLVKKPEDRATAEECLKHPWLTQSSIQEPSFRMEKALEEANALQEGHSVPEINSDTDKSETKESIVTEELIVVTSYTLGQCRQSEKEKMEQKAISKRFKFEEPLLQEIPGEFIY

The inhibition is the drop in the measured response relative to a control, in per cent. `COc1cc2oc(-c3cccc(C(=O)Nc4ccc(Cl)cc4)c3)cc(=O)c2c(OC)c1OC`: the inhibition at 10 µM is 107% with SK-MEL-28; 87.2% with HOP-62; 87.2% with HOP-92; over 50% in the assay with SF-268; 107% with UACC-257; 107% with M14. Also, the results for the inhibition at 10 µM in the assay with LOX IMVI and in the assay with SN12C were 97.8% and 61.4%, respectively. The inhibition result with MOLT-4, in the assay with HCT-116, in the assay with HT-29 [1], with KM12, in the assay on DU-145 and with T47D was “Active” each time. Also, the inhibition entry in the assay with MCF7 is “Active”.

As a reminder, the GI50 is the concentration giving 50% growth inhibition. For `COc1cc2oc(-c3cccc(C(=O)Nc4ccc(C)cc4)c3)cc(=O)c2c(OC)c1OC`, the inhibition at 10 µM with SK-MEL-28 came to 92.9%; in the assay on UACC-257 it was 70.1%; with LOX IMVI it was 108%; with SN12C, 55.7%. Moreover, the inhibition entry in the assay on MOLT-4, in the assay with HCT-116, in the assay with HT-29 [1], in the assay with KM12 and in the assay on DU-145 was “Active” each time. Besides, the inhibition in assay [2] amounted to 16%; in assay [3] it was 10.7%; in [9], 0.68%; in assay [13], 34.3%; in [14] it was 7.06%; in [17], 14.2%. Besides, the inhibition was 3.24% in assay [22] and 8.33% in assay [23]. The inhibition result in assay [4], in [5], in [6], in assay [7], in [8] and in assay [10] was “inactive” in each case. Further, the inhibition entry in [11], in assay [12], in [15], in assay [16], in assay [18] and in assay [19] was “inactive” in each case. Besides, the inhibition entry in assay [20] and in [21] was “inactive” each time. Also, the GI50 in the assay with HT-29 [24] was found to be 2550 nM. The outcome with HT-29 [25] was Active.
